Earlier results on 1 compound are cited in patent US8017143B2, “Coating agent for drug releasing stent, preparation method thereof and drug releasing stent coated therewith” (Taewoong Medical Co., Ltd, priority 2007, dated 2011).

The conditions of the data set: esophageal, prostate, rectal, bladder cancer, hepatic, central nervous system and brain tumors.

On to `CC(=O)O[C@H]1C(=O)[C@@]2(C)[C@H]([C@H](OC(=O)c3ccccc3)[C@]3(O)C[C@H](OC(=O)[C@H](O)[C@@H](NC(=O)c4ccccc4)c4ccccc4)C(C)=C1C3(C)C)[C@]1(OC(C)=O)CO[C@@H]1C[C@@H]2O` [taxol], for which the therapeutic effects result was “excellent therapeutic effects”.
